Laboratory results published in patent US11478526B2, “Methods of reducing neuroinflammation or toxicity induced by amyloid beta (abeta) using glucocorticoid induced leucine zipper (GILZ) analog peptides” (INDIANA UNIVERSITY RESEARCH AND TECHNOLOGY CORPORATION, priority 2016, dated 2022).

How the values were obtained:
Type in all cases: in vivo, mouse
[1] = test system: LPS induced neuroinflammation; assay: LPS induced neuroinflammation: cytokine ELISA of brain homogenates; details: 25 mg/kg i.v. alternate days, day 7
Description: (§1) Animals and lipopolysaccharide induced neuroinflammation: Male C57/6J mice weighing 32 to 37 grams were housed five per cage at a temperature of 22±2° C. with 12 hour light/12 hour dark cycles with free access to laboratory food and water. Lipopolysaccharides (LPS) from Escherichia coli 026:B6, =10,000 EU/mg, purified by phenol extraction was purchased from Sigma (Sigma Aldrich, Mo., USA). The mice were randomly divided into seven groups: LPS, LPS+GA-1 or GA-2 or CP-1 or CP-2 or CP-3 or TAT. The LPS was administered intraperitoneally at […] in 100 μl of sterile saline followed by corn oil in the morning daily for six days. The GA or CP was administered intravenously at 25 mg/kg in 100 μl of sterile saline on alternate days. Additional control group included mice receiving saline alone. All animals were sacrificed on day 7.
Enzyme linked immunosorbent assay for cytokines: Frozen brain tissue was homogenized in RIPA lysis buffer (50 mmol/LTris-HCl, pH 6.8, 150 mmol/L NaCl, 5 mmol/L EDTA, 0.5% sodium deoxycholate, 0.5% NP-40) supplemented with a cocktail containing protease and phosphatase inhibitors (Chemicon, Millipore) on ice and then centrifuged at 16,000×g for 30 min. Supernatant was stored at −80° C. until further analysis. […]

[2] = test system: Phospho-NF-κB p65 (Ser536); assay: LPS induced neuroinflammation: Phospho-NF-κB p65 ELISA of brain homogenates; details: 25 mg/kg i.v. alternate days, day 7
Description: as §1, with “All animals were sacrificed on day 7.” left out
NF-κB assay: Brain homogenates processed as above were assessed by the Cell Signaling Technology PathScan® Phospho-NF-κB p65 (Ser^536) Sandwich ELISA kit following manufacturer's protocol (Cell Signaling Technology, Boston, Mass.). […] After extensive washing, the captured phospho-NF-κB p65 protein was detected by incubating with horse radish peroxidase (HRP) conjugated NF-κB p65 rabbit mAb followed by washing and color development using the TMB substrate. Absorbance at 450 nm was measured using a microplate reader (Model 680; Bio-Rad Laboratories, Hercules, Calif., USA). […]

[3] = test system: LPS induced neuroinflammation; assay: LPS induced neuroinflammation: immunohistochemistry of hippocampal gliosis; details: 25 mg/kg intravenously on alternate days; for CD11b+p65+ glial cells in the hippocampus: day 7; for GFAP+ astroglial cells in the hippocampus / Iba1+ microglial cells in the hippocampus: day 7, vs control peptide or untreated
Description: as §1
Histology and immunohistochemistry: The mice were sacrificed on day 7 by intra-cardial perfusion of 25 ml of 0.9% saline. Brain from each mouse was removed, one half was immediately frozen and the other half fixed in 4% paraformaldehyde for 24 h and later in 10% neutral buffered formalin for additional 24 h. Fixed tissues were subsequently processed for paraffin embedding. Tissue sections (5μ) stained with Harris's haematoxylin and counterstained with eosin were assessed for inflammation.
Immunohistochemistry: Serial 5μ thick coronal sections of each brain specimen were immunostained for markers of microglial cells, astrocytes and NF-κB p65. Briefly, after deparaffinization and hydration sections were subjected to antigen retrieval by microwave incubation in 10 mM sodium citrate buffer (pH 6.0) followed by sequential incubation in 30% hydrogen peroxide and blocking buffer (Enzo biosciences,) to reduce non-specific binding. The sections were then stained with the following primary monoclonal antibodies from EMD Millipore Corporation, Temecula, Calif., USA: anti-Iba-1 (AIF1 clone: Cat. #MABN92) or anti-glial fibrillary acidic protein (GFAP) clone GA5 (Cat. #MAB3402, Millipore) or anti-CD11b (Cat. #MABF513) clone M1/70 or anti-NF-κB p65 subunit clone 12H11 (Cat. #MAB3026). For mono-staining of Iba-1 and GFAP, detection was with the use of IHC select immunoperoxidase secondary detection system (Millipore). The peroxidase conjugated streptavidin-biotin method was used and brown staining was considered positive. For dual staining of CD11b and NF-κB p65 detection was achieved using the […]® (mouse-HRP/rabbit-AP) IHC kit (Catalog #: ADI-950-100, ENZO Lifesciences, Farmingdale, N.Y., USA). For each marker, to confirm the specificity of the antibodies, a separate set of sections from each group were incubated with only the secondary antibodies, a condition in which no staining was present.
Quantitative analysis of staining intensity: Images of the IHC stained sections were captured using the NIKON Multiphoton microscope with attached DS Ri2 camera. Five areas encompassing the hippocampus of each brain section were analyzed using the ImageJ Software. The number and the relative optical density of Iba1+ and GFAP+ glial cells was determined using the multi-point tool and the IHC-tool box. A training for brown/red color was performed prior to measurement to define the threshold for positive selection. Regions of interest encompassing the hippocampus were identified in each section, and the corresponding images were quantified using integrated optical density, normalized to the background optical density. Measurement of pixel intensity was restricted to the DAB or AP stained pixels of cells within defined circularity. Five consecutive coronal sections were assessed for each mouse.

[4] = test system: LPS induced neuroinflammation; assay: LPS induced neuroinflammation: real time PCR of brain tissue; details: 25 mg/kg i.v. alternate days, day 7
Description: as §1
Real time polymerase chain reaction. Total cellular RNA was isolated from each brain tissue using Qiagen kit (Invitrogen, Carlsbad, Calif.) following manufacturer's protocol and reverse transcribed using iScript cDNA synthesis kit (Biorad, Calif.). Equal amount of cDNA measured by the Nanodrop (ThermoFisher Scientific, Waltham, USA) was used for amplification of IL-1β, IL-12, CD14, BclXL and Bcl2. Real time PCR was performed using SYBR green/ROX qPCR master mix (SA Biosciences, Frederick, Md.) on the ABI Prism 7000 sequence detection system (Applied Biosystem, Foster City, Calif., USA). Each reaction contains 2×12.5 μl of master mix, 1 μl of 10 μM of primers and 50 ng of the cDNA, to a total volume of 25 μl. The thermal cycling conditions included an initial denaturation step at 50° C. for 2 min, 95° C. for 3 min, 39 cycles at 95° C. for 30 s, annealing temperature at 62° C. for 30 s and extension at 72° C. for 30 s.
The gene specific threshold cycle (Ct) for each sample (ΔCt) was corrected by subtracting the Ct for the housekeeping gene β-actin. Untreated controls were chosen as the reference samples. The ΔCt for all experimental samples was subtracted by the ΔCt for the control samples (ΔΔCt).The difference in each gene specific threshold between the sample from vehicle treated and GA or CP treated cells was determined to obtain the relative change in the specific mRNA. The magnitude of change in the mRNA was expressed as 2^−ΔΔCt. Each measurement of a sample was performed in duplicates.

Row | Substance | IFN-γ in brain tissue [1] [pg/mL] | IL-6 in brain tissue homogenates [1] [pg/mL] | IL-12 in brain homogenates [1] [pg/mL] | TNF-α in brain homogenates [1] [pg/mL] | absorbance suggestive of activated p65 in brain protein extract [2] | CD11b+p65+ glial cells in the hippocampus [3] | GFAP+ astroglial cells in the hippocampus [3] | Iba1+ microglial cells in the hippocampus [3] | relative expression of BCl2 in brain tissues [4] | relative expression of BclXL in brain tissues [4] | relative expression of CD14 mRNA in brain tissues [4] | steady-state mRNA for IL-1β in brain tissues [4]
1 | Ac-EPAPLAPYG-NH2 [GA-1] | 2863.2 ± 697.5 | 18.7 ± 2 | 92.0 ± 9.3 | 1500.1 ± 476 | 0.098+/−0.03 | significantly reduced in number and intensity | reduced | reduced | 1.25+/−0.5 | 0.32+/−0.15 | 0.48+/−0.1 | decreased levels
2 | Ac-EPAPESPQV-NH2 [GA-2] | 3125.1 ± 815 | 19.6 ± 0.84 | 101.3 ± 15.9 | 1199.2 ± 356.4 | 0.12+/−0.07 | significantly reduced in number and intensity | reduced | reduced | 1.9+/−0.9 | 0.25+/−0.4 |  | decreased levels
